From patent US20140039043A1, “PHARMACEUTICAL COMPOSITIONS COMPRISING CANNABIGEROL” (GW Pharma Limited, priority 2006, published 2014)

Test system: C57 B16J mice
Assay: Tail suspension test (animal model of depression)
Format: in vivo
Details: CBG dose greater than or equal to 40 mg/kg ip, tested 30 minutes after injection for six minutes
Procedure: A substantially pure extract of cannabigerol, purified from a cannabis plant extract, was tested for its ability to modify the behaviour of mice during an open field test and a tail suspension test (Steru et al., 1985, Psychopharmacology (Berl.) 85(3), 367-370). The CBG extract was compared to a known antidepressant imipramine.
The experiment used groups of 7-8 C57 B16J mice and these were tested with doses of 0, 5, 10, 20, 40, 60 and 80 mg/kg ip of CBG extract. The dose of imipramine that was used was the standard dose that is known to produce an anti-depressant effect of 30 mg/kg ip. One group of animals were administered a vehicle control.
The animals were subjected to a tail suspension test whereby a sound-attenuated chamber with a titanium bar mounted 15 cm from the floor was used. An opto-electronic sensor was mounted in a white plastic column and positioned from the mounting bar. An infra-red light transmitted from an LED onto the animal. If the animal moved, the amount of light collected by the phototransistor would increase or decrease depending on the size of the movement. […]
The mouse was suspended from a bar by the tip of its tail using adhesive tape so that the tip of their nose was 2 cm from the floor of the chamber. The total number of movements and total amount of time spent immobile were recorded.

CCCCCc1cc(O)c(C/C=C(\C)CCC=C(C)C)c(O)c1 [CBG, cannabigerol]
amount of struggling in the tail suspension test compared with vehicle control: significantly increased
